Results published in PMC6318026 (Molecular cancer therapeutics, 2018).

Biological target: dihydroorotate dehydrogenase (DHODH) (Homo sapiens, UniProt Q02127)
Assay: recombinant DHODH enzyme assay
Assay type: biochemical

dihydroorotate dehydrogenase (DHODH), sequence (Q02127 whole entry): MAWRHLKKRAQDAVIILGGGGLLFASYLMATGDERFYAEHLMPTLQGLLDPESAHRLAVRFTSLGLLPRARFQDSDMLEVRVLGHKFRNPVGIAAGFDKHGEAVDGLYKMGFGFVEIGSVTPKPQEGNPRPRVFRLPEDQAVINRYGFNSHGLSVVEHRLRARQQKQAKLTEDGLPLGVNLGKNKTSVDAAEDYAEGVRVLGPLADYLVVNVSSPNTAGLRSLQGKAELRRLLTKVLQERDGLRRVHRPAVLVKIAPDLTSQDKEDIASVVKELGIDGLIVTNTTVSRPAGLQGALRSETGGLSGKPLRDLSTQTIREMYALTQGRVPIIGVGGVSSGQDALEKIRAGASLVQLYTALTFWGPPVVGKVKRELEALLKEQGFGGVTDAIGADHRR

C/C(O)=C(\C#N)C(=O)Nc1ccc(C(F)(F)F)cc1 [teriflunomide]
recombinant DHODH enzyme assay; isolated mitochondria assay: inhibited the activity of recombinant DHODH using in vitro enzyme assays, though not as potently as do brequinar or teriflunomide
